From ChEMBL document CHEMBL1817647, “1-Heteroaryl-6-(3,4-dichlorophenyl)-3-azabicyclo[4.1.0]heptane: further insights into a class of triple re-uptake inhibitors” (Bioorg Med Chem, 2011)

Columns and labels:
[1] = molecular target: Sodium-dependent dopamine transporter (Homo sapiens, UniProt Q01959); assay: Displacement of [3H]WIN-35428 from human recombinant DAT by scintillation proximity assay
[2] = molecular target: Sodium-dependent serotonin transporter (Homo sapiens, UniProt P31645); assay: Displacement of [3H]citalopram from human recombinant SERT scintillation proximity assay
[3] = molecular target: Sodium-dependent noradrenaline transporter (Homo sapiens, UniProt P23975); assay: Displacement of [3H]nisoxetine from human recombinant NET by scintillation proximity assay
[4] = molecular target: Cytochrome P450 2C9 (Homo sapiens, UniProt P11712); assay: Inhibition of human CYP2C9 incubated for 10 mins before substrate addition by fluorescence assay
[5] = molecular target: Cytochrome P450 3A4 (Homo sapiens, UniProt P08684); assay: Inhibition of human CYP3A4 incubated for 10 mins before substrate addition by fluorescence assay
[6] = Ratio of drug level in brain to blood in rat after 1 hr; format: ADME, tissue-based; conditions: read-out: BBR
[7] = molecular target: Cytochrome P450 2C19 (Homo sapiens, UniProt P33261); assay: Inhibition of human CYP2C19 incubated for 10 mins before substrate addition by fluorescence assay
[8] = Oral bioavailability in rat; format: ADME, organism-based; conditions: in vivo
[9] = molecular target: T1, Cytochrome P450 1A2 (Homo sapiens, UniProt P05177); assay: Inhibition of human CYP1A2 incubated for 10 mins before substrate addition by fluorescence assay
T1 sequence (P05177 whole entry): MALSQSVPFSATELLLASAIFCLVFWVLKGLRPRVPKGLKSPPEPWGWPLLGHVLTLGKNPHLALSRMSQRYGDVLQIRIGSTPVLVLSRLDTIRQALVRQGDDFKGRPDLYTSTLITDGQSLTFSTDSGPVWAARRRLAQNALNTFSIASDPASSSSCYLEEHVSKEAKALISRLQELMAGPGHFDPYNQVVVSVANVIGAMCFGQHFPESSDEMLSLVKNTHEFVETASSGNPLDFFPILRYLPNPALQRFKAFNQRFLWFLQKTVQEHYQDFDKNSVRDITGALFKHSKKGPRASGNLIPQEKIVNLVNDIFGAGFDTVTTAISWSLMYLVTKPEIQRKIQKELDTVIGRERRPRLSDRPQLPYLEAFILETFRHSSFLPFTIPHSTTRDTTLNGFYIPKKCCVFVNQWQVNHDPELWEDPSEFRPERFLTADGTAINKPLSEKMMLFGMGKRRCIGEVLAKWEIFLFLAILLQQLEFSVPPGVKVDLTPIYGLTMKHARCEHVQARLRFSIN

[10] = Hepatic extraction ratio in rat; conditions: in vivo
[11] = Oral absorption in rat; format: ADME, organism-based; conditions: in vivo
[12] = Volume of distribution in rat; format: ADME, organism-based; conditions: in vivo
[13] = molecular target: Cytochrome P450 2D6 (Homo sapiens, UniProt P10635); assay: Inhibition of human CYP2D6 incubated for 10 mins before substrate addition by fluorescence assay
[14] = Half life in rat; format: ADME, organism-based; conditions: in vivo
[15] = Blood clearance in rat; format: ADME, organism-based
[16] = test system: Liver microsomes; assay: Intrinsic clearance in rat liver microsomes assessed per mg of protein at 0.5 uM for 30 mins by HPLC-MS/MS analysis in presence of NADPH; format: ADME, Microsome; conditions: 0.5 h
[17] = test system: Liver microsomes; assay: Intrinsic clearance in human liver microsomes assessed per mg of protein at 0.5 uM for 30 mins by HPLC-MS/MS analysis in presence of NADPH; format: ADME, Microsome; conditions: 0.5 h

Sequence of Cytochrome P450 2D6 (P10635 whole entry): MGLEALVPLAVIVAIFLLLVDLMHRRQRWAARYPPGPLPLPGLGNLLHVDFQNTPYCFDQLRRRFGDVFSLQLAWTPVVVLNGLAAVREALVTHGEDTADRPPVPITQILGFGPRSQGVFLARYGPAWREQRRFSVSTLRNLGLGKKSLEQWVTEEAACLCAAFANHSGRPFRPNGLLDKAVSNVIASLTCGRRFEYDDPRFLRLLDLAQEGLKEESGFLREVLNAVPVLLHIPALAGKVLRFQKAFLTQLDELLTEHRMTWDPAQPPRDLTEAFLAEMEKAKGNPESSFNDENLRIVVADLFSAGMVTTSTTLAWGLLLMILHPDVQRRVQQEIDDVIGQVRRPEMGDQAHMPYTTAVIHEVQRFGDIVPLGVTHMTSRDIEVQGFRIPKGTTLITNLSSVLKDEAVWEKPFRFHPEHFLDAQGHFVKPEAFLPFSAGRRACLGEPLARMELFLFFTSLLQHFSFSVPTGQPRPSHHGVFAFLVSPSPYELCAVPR
Sequence of Sodium-dependent noradrenaline transporter (P23975 whole entry): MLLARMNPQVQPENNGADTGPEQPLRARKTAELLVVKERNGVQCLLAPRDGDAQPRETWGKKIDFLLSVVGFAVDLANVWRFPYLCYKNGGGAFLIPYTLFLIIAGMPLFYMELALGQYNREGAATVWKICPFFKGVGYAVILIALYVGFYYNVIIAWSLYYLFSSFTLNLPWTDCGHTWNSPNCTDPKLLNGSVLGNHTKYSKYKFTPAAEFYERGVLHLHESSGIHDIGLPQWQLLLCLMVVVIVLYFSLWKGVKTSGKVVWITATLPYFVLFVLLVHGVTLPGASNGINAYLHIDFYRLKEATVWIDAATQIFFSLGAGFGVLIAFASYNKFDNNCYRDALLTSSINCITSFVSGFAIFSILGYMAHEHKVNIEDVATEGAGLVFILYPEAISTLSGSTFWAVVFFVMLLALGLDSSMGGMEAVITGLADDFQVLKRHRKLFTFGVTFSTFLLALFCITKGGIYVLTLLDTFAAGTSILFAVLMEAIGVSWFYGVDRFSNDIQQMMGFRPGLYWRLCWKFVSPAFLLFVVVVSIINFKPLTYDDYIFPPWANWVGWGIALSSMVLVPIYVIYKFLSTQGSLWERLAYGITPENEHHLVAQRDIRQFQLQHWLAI
Sequence of Cytochrome P450 2C9 (P11712 whole entry): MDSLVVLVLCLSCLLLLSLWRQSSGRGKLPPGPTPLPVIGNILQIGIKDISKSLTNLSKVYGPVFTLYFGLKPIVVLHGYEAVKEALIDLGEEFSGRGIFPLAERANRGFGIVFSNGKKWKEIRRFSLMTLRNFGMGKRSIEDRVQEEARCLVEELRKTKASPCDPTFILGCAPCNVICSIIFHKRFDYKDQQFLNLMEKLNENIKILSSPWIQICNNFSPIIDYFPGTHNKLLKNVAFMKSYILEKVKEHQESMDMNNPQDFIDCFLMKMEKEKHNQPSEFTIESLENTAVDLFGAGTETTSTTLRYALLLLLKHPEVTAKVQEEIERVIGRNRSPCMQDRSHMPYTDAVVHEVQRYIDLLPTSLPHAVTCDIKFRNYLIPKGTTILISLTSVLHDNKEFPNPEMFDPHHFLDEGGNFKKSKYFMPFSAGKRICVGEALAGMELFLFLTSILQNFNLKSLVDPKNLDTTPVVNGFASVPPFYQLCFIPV
Sequence of Sodium-dependent dopamine transporter (Q01959 whole entry): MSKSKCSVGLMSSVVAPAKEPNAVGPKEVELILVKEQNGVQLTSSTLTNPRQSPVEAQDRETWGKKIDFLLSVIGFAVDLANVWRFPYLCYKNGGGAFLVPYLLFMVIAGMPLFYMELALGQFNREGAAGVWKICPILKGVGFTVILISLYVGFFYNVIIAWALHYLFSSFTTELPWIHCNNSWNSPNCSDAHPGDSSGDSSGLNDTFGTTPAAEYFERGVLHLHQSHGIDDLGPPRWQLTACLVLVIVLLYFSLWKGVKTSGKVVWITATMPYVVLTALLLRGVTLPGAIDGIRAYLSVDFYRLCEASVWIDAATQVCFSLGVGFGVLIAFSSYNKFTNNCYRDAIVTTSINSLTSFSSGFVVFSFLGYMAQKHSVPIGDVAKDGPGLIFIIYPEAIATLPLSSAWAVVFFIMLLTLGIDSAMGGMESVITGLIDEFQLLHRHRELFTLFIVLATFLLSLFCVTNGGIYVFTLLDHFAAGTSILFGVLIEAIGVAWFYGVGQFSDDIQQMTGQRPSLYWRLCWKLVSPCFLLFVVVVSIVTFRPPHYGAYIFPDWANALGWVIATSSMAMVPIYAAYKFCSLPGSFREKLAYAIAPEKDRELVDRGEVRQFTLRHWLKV
Sequence of Sodium-dependent serotonin transporter (P31645 whole entry): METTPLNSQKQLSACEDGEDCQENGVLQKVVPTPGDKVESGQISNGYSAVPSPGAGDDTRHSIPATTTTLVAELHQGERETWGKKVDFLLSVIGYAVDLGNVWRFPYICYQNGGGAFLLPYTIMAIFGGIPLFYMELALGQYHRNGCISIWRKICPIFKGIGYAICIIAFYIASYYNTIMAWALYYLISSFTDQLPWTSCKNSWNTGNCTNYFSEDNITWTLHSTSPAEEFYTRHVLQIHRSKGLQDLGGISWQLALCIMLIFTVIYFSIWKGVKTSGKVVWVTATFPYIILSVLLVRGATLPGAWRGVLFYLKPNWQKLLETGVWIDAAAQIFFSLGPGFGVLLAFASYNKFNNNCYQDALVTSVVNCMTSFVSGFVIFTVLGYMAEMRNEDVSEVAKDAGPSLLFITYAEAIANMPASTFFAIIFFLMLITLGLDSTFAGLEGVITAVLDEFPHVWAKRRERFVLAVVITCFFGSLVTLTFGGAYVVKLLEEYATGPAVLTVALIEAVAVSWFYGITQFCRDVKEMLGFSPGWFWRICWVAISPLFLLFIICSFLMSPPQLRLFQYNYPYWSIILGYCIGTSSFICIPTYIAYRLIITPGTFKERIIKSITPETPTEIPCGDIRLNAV
Sequence of Cytochrome P450 3A4 (P08684 whole entry): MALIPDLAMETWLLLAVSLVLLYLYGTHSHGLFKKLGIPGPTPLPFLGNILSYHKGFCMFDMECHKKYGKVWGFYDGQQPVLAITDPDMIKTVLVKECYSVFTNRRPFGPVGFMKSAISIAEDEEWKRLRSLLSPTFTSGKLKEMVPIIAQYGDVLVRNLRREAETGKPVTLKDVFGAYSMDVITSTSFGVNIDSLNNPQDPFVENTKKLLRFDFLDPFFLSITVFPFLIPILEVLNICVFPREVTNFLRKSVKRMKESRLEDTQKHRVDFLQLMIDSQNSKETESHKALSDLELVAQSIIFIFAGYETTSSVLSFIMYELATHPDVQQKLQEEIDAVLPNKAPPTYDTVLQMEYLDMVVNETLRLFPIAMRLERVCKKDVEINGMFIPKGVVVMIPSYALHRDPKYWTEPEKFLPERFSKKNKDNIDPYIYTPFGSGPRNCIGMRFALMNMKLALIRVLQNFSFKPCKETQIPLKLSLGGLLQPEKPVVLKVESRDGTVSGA
Sequence of Cytochrome P450 2C19 (P33261 whole entry): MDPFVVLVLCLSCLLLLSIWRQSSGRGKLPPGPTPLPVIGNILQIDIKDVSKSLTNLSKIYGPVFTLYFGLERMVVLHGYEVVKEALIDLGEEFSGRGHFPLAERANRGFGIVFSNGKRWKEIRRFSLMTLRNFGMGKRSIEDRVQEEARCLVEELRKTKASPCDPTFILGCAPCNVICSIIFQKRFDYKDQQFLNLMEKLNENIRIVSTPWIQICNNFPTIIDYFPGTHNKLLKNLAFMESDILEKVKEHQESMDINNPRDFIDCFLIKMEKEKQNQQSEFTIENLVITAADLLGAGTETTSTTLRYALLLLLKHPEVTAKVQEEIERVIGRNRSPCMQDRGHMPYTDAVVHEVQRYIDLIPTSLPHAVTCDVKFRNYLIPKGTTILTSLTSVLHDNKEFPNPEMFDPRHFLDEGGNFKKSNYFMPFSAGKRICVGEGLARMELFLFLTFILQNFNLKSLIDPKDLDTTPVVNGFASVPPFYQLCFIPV

Structure (SMILES) | Ki [1] | Ki [2] | Ki [3] | other results
Cc1nc(C)n(CC23CNCC[C@]2(c2ccc(Cl)c(Cl)c2)C3)n1 (stereo in doubt; 38) | 200 nM | 39.8 nM | 1580 nM | 
CC(C)c1nnnn1C[C@@]12CNCC[C@]1(c1ccc(Cl)c(Cl)c1)C2 (racemic) | 63.1 nM | 63.1 nM | 398 nM | 
Cc1ccn(CC23CNCC[C@]2(c2ccc(Cl)c(Cl)c2)C3)n1 (single isomer, unassigned; enantiomer 1) | 316 nM | 20 nM | 1000 nM | 
Cc1cc(C(F)(F)F)nn1C[C@@]12CNCC[C@]1(c1ccc(Cl)c(Cl)c1)C2 (racemic) | 2 nM | 1 nM | 25.1 nM | 
Cc1cnn(C[C@@]23CNCC[C@]2(c2ccc(Cl)c(Cl)c2)C3)c1 (racemic) | 126 nM | 0.794 nM | 79.4 nM | 
Cc1cnc([C@@]23CNCC[C@]2(c2ccc(Cl)c(Cl)c2)C3)o1 (racemic) | 1 nM | 6.31 nM | 6.31 nM | 
N#Cc1ccn(CC23CNCC[C@]2(c2ccc(Cl)c(Cl)c2)C3)c1 (single isomer, unassigned; enantiomer 1) | 12.6 nM | 0.631 nM | 31.6 nM | 
N#Cc1ccnn1C[C@@]12CNCC[C@]1(c1ccc(Cl)c(Cl)c1)C2 (racemic) | 20 nM | 5.01 nM | 31.6 nM | 
Cc1nc(C)n(C[C@@]23CNCC[C@]2(c2ccc(Cl)c(Cl)c2)C3)n1 (racemic) | 25.1 nM | 3.16 nM | 39.8 nM | 
Cc1ccnn1CC12CNCC[C@]1(c1ccc(Cl)c(Cl)c1)C2 (stereo in doubt; 16) | 100 nM | 20 nM | 316 nM | 
CC(C)c1nnn(C[C@@]23CNCC[C@]2(c2ccc(Cl)c(Cl)c2)C3)n1 (racemic) | 25.1 nM | 0.794 nM | 398 nM | 
Cc1cc(C(F)(F)F)n(C[C@@]23CNCC[C@]2(c2ccc(Cl)c(Cl)c2)C3)n1 (racemic) | 1.26 nM | 0.794 nM | 10 nM | 
Cc1cc(C)n(C[C@@]23CNCC[C@]2(c2ccc(Cl)c(Cl)c2)C3)c1 (racemic) | 7.94 nM | 2 nM | 20 nM | 
Cc1nc(C)n(CC23CNCC[C@]2(c2ccc(Cl)c(Cl)c2)C3)n1 (single isomer, unassigned; enantiomer 1) | 15.8 nM | 2 nM | 25.1 nM | IC50 [4]: > 25 µM; IC50 [5]: > 25 µM; Kp at 1 h [6]: 0.4; IC50 [7]: > 25 µM; bioavailability [8]: 17%; IC50 [9]: > 25 µM; hepatic extraction ratio [10]: 0.8; Fa [11]: 94%; Vd [12]: 8.1 L/kg; IC50 [13]: > 25 µM; half-life [14]: 102 min; clearance [15]: 63 mL/min/kg
Cc1ncoc1C[C@@]12CNCC[C@]1(c1ccc(Cl)c(Cl)c1)C2 (racemic) | 12.6 nM | 3.16 nM | 25.1 nM | 
Cc1csc(C23CNCC[C@]2(c2ccc(Cl)c(Cl)c2)C3)n1 (single isomer, unassigned; enantiomer 1) | 0.2 nM | 0.398 nM | 0.398 nM | IC50 [4]: > 6 µM; IC50 [5]: > 6 µM; IC50 [7]: > 6 µM; IC50 [9]: > 6 µM; CL [16]: 5.4 mL/min/g; IC50 [13]: > 6 µM; CL [17]: 2.6 mL/min/g
Cc1csc([C@@]23CNCC[C@]2(c2ccc(Cl)c(Cl)c2)C3)n1 (racemic) | 0.158 nM | 0.501 nM | 0.398 nM | 
Cc1cc(C)n(CC23CNCC[C@]2(c2ccc(Cl)c(Cl)c2)C3)n1 (single isomer, unassigned) | 3.16 nM | 0.2 nM | 1 nM | Kp at 1 h [6]: 0.8; bioavailability [8]: 6%; Fa [11]: 50%; CL [16]: 5.5 mL/min/g; Vd [12]: 6.9 L/kg; half-life [14]: 138 min; CL [17]: 2.4 mL/min/g; clearance [15]: 52 mL/min/kg
Clc1ccc([C@]23CCNCC2(Cn2cc4ccccc4n2)C3)cc1Cl (stereo partly specified) | 3.98 nM | 0.2 nM | 50.1 nM | 
Cc1ccn(CC23CNCC[C@]2(c2ccc(Cl)c(Cl)c2)C3)n1 (stereo in doubt) | 15.8 nM | 0.251 nM | 3.16 nM | IC50 [4]: > 10 µM; IC50 [5]: > 10 µM; IC50 [7]: > 10 µM; IC50 [9]: > 10 µM; IC50 [13]: > 10 µM

Structure (SMILES) | Ki [1] | Ki [2] | Ki [3] | other results
CC(C)(C)c1ccn(C[C@@]23CNCC[C@]2(c2ccc(Cl)c(Cl)c2)C3)n1 (racemic) | 6.31 nM | 0.251 nM | 50.1 nM | 
Cc1coc(C[C@@]23CNCC[C@]2(c2ccc(Cl)c(Cl)c2)C3)n1 (racemic) | 63.1 nM | 2 nM | 31.6 nM | 
Cc1cc(C)n(CC23CNCC[C@]2(c2ccc(Cl)c(Cl)c2)C3)n1 (single isomer, unassigned; enantiomer 1) | 158 nM | 15.8 nM | 501 nM | 
Cc1cc([C@@]23CNCC[C@]2(c2ccc(Cl)c(Cl)c2)C3)no1 (racemic) | 2 nM | 7.94 nM | 39.8 nM | 
Cc1noc([C@@]23CNCC[C@]2(c2ccc(Cl)c(Cl)c2)C3)n1 (racemic) | 0.794 nM | 7.94 nM | 31.6 nM | 
Clc1ccc([C@]23CCNC[C@@]2(Cn2cncn2)C3)cc1Cl (racemic) | 200 nM | 3.98 nM | 100 nM | 
Cc1ccn(CC23CNCC[C@]2(c2ccc(Cl)c(Cl)c2)C3)c1 (stereo partly specified) | 31.6 nM | 0.501 nM | 39.8 nM | 
Cc1cc(C)n(C[C@@]23CNCC[C@]2(c2ccc(Cl)c(Cl)c2)C3)n1 (racemic) | 6.31 nM | 0.398 nM | 1.58 nM | 
Cc1ccnn1CC12CNCC[C@]1(c1ccc(Cl)c(Cl)c1)C2 (single isomer, unassigned; enantiomer 2) | 3.16 nM | 0.794 nM | 1.58 nM | IC50 [4]: > 10 µM; IC50 [5]: > 10 µM; IC50 [7]: > 10 µM; IC50 [9]: > 10 µM; CL [16]: 2.6 mL/min/g; IC50 [13]: > 10 µM; CL [17]: 2.5 mL/min/g
Clc1ccc([C@]23CCNCC2(Cn2ccc4ccccc42)C3)cc1Cl (stereo partly specified) | 20 nM | 1.26 nM | 63.1 nM | 
Cc1ccc(C)n1C[C@@]12CNCC[C@]1(c1ccc(Cl)c(Cl)c1)C2 (racemic) | 20 nM | 2.51 nM | 20 nM | 
Cc1csc(C[C@@]23CNCC[C@]2(c2ccc(Cl)c(Cl)c2)C3)n1 (racemic) | 6.31 nM | 0.1 nM | 0.631 nM | 
Clc1ccc([C@]23CCNC[C@@]2(Cn2cccc2)C3)cc1Cl (racemic) | 15.8 nM | 0.398 nM | 10 nM | 
Cc1csc(C23CNCC[C@]2(c2ccc(Cl)c(Cl)c2)C3)n1 (stereo in doubt; 7) | 20 nM | 15.8 nM | 31.6 nM | 
FC(F)(F)c1ccn(C[C@@]23CNCC[C@]2(c2ccc(Cl)c(Cl)c2)C3)n1 (racemic) | 25.1 nM | 2 nM | 158 nM | 
N#Cc1ccn(C[C@@]23CNCC[C@]2(c2ccc(Cl)c(Cl)c2)C3)n1 (racemic) | 25.1 nM | 1 nM | 25.1 nM | 
Clc1ccc([C@]23CCNCC2(Cn2ncc4ccccc42)C3)cc1Cl (stereo partly specified) | 15.8 nM | 0.251 nM | 50.1 nM | 
FC(F)(F)c1ccnn1C[C@@]12CNCC[C@]1(c1ccc(Cl)c(Cl)c1)C2 (racemic) | 1.58 nM | 2 nM | 10 nM | 
N#Cc1cccn1C[C@@]12CNCC[C@]1(c1ccc(Cl)c(Cl)c1)C2 (racemic) | 12.6 nM | 2.51 nM | 39.8 nM | 
